Legend:
Conditions in all cases: 72 h
BV-173 = test system: BV-173
In short: (§1)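 In 384-well plates holding acoustically pre-printed compounds at five tenfold doses from 1 to 10,000 nM, in duplicate, fifteen myeloid leukaemia cell lines were grown in RPMI 1640 for 72 h at 37 °C with 5% CO2. Luminescent ATP viability was scaled between vehicle and a positive control at 10 µM. The IC50 was then taken from log-logistic dose–response fits with four parameters.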

HEL = test system: HEL
In short: as §1

HL-60 = test system: HL-60
In short: as §1

K-562 = test system: K-562
In short: as §1

KCL-22 = test system: KCL-22
In short: as §1

KG-1 = test system: KG-1
In short: as §1

KU-812 = test system: KU-812
In short: as §1

LAMA-84 = test system: LAMA-84
In short: as §1

ML-2 = test system: ML-2
In short: as §1

MOLM-13 = test system: MOLM-13
In short: as §1

Mono-Mac-6 = test system: Mono-Mac-6
In short: as §1

NOMO-1 = test system: NOMO-1
In short: as §1

SHI-1 = test system: SHI-1
In short: as §1

THP-1 = test system: THP-1
In short: as §1

[1] = test system: myeloid leukemia patient primary cells Pat.10; assay: cell viability (% survival relative to DMSO control); higher = less cytotoxic
In short: (§2)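 Seventy compounds were pre-printed on 384-well plates at five tenfold concentrations between 1 and 10,000 nM, in duplicate. Thawed mononuclear cells purified by Ficoll from AML or CML patients were added at 10,000 cells/well in RPMI 1640 with 10% FBS for 72 h. Viability by CellTiter-Glo was normalised to DMSO and 10 μM proteasome-inhibitor wells. Where stated, area under the curve was taken from log-logistic fits made with the drc and PharmacoGx R packages, each fit having four parameters.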

[2] = test system: myeloid leukemia patient primary cells Pat.11; assay: as above
In short: as §2

[3] = test system: myeloid leukemia patient primary cells Pat.12; assay: as above
In short: as §2

[4] = test system: myeloid leukemia patient primary cells Pat.13; assay: as above
In short: as §2

[5] = test system: myeloid leukemia patient primary cells Pat.14; assay: as above
In short: as §2

[6] = test system: myeloid leukemia patient primary cells Pat.15; assay: as above
In short: as §2

[7] = test system: myeloid leukemia patient primary cells Pat.1; assay: as above
In short: as §2

[8] = test system: myeloid leukemia patient primary cells Pat.2; assay: as above
In short: as §2

[9] = test system: myeloid leukemia patient primary cells Pat.3; assay: as above
In short: as §2

[10] = test system: myeloid leukemia patient primary cells Pat.4; assay: as above
In short: as §2

[11] = test system: myeloid leukemia patient primary cells Pat.5; assay: as above
In short: as §2

[12] = test system: myeloid leukemia patient primary cells Pat.6; assay: as above
In short: as §2

[13] = test system: myeloid leukemia patient primary cells Pat.7; assay: as above
In short: as §2

[14] = test system: myeloid leukemia patient primary cells Pat.8; assay: as above
In short: as §2

[15] = test system: myeloid leukemia patient primary cells Pat.9; assay: as above
In short: as §2

[16] = test system: myeloid leukemia patient primary cells Pat.3; assay: area under dose-response curve (viability, 1 nM-10 uM) (fraction (0-1)); higher = more sensitive
In short: as §2

CCCCCCCCCCCCC/C=C/[C@@H](O)[C@H](CO)N(C)C [N,N-Dimethylsphingosine]
Conditions	IC50 (cell viability) [nM]	area under dose-response curve
BV-173	1670	–
HEL	2980	–
HL-60	> 10000	–
K-562	> 10000	–
KCL-22	2780	–
KG-1	3580	–
KU-812	> 10000	–
LAMA-84	> 10000	–
ML-2	3460	–
MOLM-13	> 10000	–
Mono-Mac-6	> 10000	–
NOMO-1	> 10000	–
SHI-1	> 10000	–
THP-1	> 10000	–
[16]	–	0.384

cell viability [%]
Conditions	1 nM	10 nM	100 nM	1000 nM	10000 nM
[1]	79.3	74.6	39.9	22.9	< 0
[2]	94.6	> 100	94.1	93.3	19.4
[3]	100	84.6	94.2	84.6	42.2
[4]	94.6	86.2	71.2	85.7	0.263
[5]	97.9	85	57.8	47.9	2.81
[6]	93.8	95.6	78.6	85.5	10.4
[7]	> 100	92.6	79.6	74.3	56.2
[8]	91.4	96.1	88.2	92.4	3.22
[9]	57.4	87.2	60	17.4	0.177
[10]	98.5	80.5	78.5	74	5.51
[11]	75.5	57.6	10.1	2.01	0.265
[12]	> 100	99.3	76.5	83.7	0.544
[13]	90.6	65.6	86.3	11.6	< 0
[14]	71.9	86.8	69	92.9	0.0301
[15]	68.4	77.7	25.2	21.6	< 0

c1ccc2c(c1)SCc1c-2[nH]c2ccccc12
Conditions	IC50 (cell viability) [nM]	area under dose-response curve
BV-173	646	–
HEL	3300	–
HL-60	2000	–
K-562	4420	–
KCL-22	2180	–
KG-1	760	–
KU-812	2920	–
LAMA-84	4960	–
ML-2	1480	–
MOLM-13	1970	–
Mono-Mac-6	2890	–
NOMO-1	3120	–
SHI-1	2600	–
THP-1	4040	–
[16]	–	0.37

cell viability [%]
Conditions	1 nM	10 nM	100 nM	1000 nM	10000 nM
[1]	73.8	59.9	41.9	3.78	42.4
[2]	> 100	94.7	99.1	89.8	0.682
[3]	96.4	96.2	94.1	81.1	0.896
[4]	90.5	72.1	92.1	61.1	22.6
[5]	95.4	54.1	67.2	4.19	6.72
[6]	94.1	97.3	89.1	59.8	0.46
[7]	95.2	64.7	96.7	85.8	0.548
[8]	96.8	89.3	97.2	86.9	3.43
[9]	96.1	76.1	89.8	2.3	< 0
[10]	95.6	83.4	91	67.8	< 0
[11]	82.4	5.49	44.4	7.88	2.27
[12]	98.8	82.9	95	88.3	0.384
[13]	> 100	72.5	> 100	41.6	< 0
[14]	92.5	67.3	69.9	75.9	0.503
[15]	91.9	34.7	71	2.02	5.35
